Each structure is given as a SMILES string.

In general, IC50 refers to the point on the concentration scale where inhibition reaches its midpoint. The low end stands for greater potency, the high end for weaker potency.

T2 sequence (P06276 29-602): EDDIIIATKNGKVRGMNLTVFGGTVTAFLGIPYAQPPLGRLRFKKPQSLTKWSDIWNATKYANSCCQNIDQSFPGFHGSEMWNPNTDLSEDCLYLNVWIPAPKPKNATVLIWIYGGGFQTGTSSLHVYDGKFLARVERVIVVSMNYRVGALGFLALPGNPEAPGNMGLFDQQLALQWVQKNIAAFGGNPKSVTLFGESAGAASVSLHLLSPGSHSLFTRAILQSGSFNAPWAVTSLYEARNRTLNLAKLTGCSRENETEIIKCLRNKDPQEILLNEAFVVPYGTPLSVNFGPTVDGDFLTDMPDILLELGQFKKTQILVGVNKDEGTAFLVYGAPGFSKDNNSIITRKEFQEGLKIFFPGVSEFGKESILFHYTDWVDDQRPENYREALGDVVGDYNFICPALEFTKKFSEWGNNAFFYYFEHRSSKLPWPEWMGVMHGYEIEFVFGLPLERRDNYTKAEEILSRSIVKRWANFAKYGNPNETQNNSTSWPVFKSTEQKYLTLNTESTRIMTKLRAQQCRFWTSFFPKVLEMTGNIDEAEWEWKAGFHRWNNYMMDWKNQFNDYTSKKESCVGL
T3 sequence (Q13224 27-1484, other chains not shown): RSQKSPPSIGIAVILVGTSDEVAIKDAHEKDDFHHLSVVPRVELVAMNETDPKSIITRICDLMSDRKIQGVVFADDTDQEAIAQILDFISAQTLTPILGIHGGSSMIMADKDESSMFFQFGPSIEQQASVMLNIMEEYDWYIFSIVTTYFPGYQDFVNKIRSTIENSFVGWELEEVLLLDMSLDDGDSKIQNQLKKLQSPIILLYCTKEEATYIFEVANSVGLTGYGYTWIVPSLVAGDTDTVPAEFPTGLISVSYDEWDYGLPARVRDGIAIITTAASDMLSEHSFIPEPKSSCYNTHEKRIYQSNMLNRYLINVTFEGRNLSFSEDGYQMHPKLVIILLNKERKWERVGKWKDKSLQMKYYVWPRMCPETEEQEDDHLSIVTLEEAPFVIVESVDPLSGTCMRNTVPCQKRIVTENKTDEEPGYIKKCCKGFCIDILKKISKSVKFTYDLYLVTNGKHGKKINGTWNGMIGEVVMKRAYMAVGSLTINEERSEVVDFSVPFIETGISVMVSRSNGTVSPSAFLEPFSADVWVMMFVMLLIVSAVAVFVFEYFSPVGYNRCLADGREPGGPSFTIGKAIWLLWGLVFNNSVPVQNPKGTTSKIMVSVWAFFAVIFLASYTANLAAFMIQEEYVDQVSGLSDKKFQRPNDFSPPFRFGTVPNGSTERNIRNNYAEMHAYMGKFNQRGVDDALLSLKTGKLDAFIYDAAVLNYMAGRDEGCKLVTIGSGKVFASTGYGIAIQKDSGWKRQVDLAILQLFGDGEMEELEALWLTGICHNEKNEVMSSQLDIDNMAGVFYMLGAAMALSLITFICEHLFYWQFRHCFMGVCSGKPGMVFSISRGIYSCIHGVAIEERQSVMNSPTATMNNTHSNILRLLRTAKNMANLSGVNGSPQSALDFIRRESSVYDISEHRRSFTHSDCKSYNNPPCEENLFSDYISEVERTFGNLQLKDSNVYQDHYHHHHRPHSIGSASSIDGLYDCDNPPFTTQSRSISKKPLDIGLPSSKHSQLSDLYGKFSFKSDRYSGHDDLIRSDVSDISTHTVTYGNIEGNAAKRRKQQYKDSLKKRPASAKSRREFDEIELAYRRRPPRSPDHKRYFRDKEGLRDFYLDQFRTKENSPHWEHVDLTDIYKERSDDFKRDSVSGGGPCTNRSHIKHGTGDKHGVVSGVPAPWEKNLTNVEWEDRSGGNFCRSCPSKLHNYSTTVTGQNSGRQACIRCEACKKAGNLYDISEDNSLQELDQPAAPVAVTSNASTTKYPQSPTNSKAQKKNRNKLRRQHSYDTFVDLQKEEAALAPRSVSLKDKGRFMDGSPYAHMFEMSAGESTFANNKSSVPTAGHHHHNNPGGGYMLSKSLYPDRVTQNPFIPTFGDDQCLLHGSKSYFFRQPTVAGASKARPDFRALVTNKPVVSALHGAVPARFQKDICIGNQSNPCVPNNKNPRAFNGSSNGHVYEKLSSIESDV

The target in one series is T1, human AChE (hAChE) (Homo sapiens, UniProt P22303).
T1 construct: made in house
T1 sequence (P22303 32-614): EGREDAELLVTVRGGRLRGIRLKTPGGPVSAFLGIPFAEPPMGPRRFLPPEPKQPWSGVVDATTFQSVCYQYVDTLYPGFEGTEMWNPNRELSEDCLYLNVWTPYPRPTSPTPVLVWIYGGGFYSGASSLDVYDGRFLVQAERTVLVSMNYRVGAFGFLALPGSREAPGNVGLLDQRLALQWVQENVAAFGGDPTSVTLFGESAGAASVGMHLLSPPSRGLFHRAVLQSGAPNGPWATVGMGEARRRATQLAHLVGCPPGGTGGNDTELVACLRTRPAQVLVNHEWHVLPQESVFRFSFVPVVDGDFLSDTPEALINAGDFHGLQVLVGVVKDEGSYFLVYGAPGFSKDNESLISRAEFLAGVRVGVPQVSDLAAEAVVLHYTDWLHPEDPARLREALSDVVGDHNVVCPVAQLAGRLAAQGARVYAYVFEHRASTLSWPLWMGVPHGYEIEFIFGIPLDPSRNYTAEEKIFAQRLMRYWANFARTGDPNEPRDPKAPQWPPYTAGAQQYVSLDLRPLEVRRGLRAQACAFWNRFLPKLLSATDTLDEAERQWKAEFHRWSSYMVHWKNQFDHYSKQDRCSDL
Nature of the series: hAChE inhibition, modified Ellman's method. It counts as biochemical. Particulars: read-out: % of AChE inhibition. How it is done: (§1) N-Methylpropargylamine-quinazolines were tested for their inhibitory potency against human AChE (hAChE) and human BChE (hBChE) enzymes using the modified spectrophotometric method of Ellman et al..
(§2) The human recombinant BChE and AChE were prepared at the Department of Toxicology and Military Pharmacy (Faculty of Military Health Sciences, Hradec Kralove, Czech Republic). 5,5′-dithiobis(2-nitrobenzoic acid) (Ellman’s reagent, DTNB), phosphate buffer (PB, pH 7.4), acetylthiocholine (ATC) and butyrylthiocholine (BTC), were purchased from Sigma-Aldrich, Prague, Czech Republic. For measuring purposes, polystyrene Nunc 96-well microplates with a flat-bottom shape (ThermoFisher Scientific, Waltham, MA, USA) were utilized. All the assays were carried out in 0.1 M KH2PO4/K2HPO4 buffer, pH 7.4. Enzyme solutions were prepared at 2.0 units/mL in 2 mL aliquots. The assay medium consisted of a 0.1 M phosphate buffer (pH 7.4), 0.01 M DTNB, the enzyme, and 0.01 M substrate (ATC/BTC iodide solution). Concentration 1 µM was tested and the % of inhibition was calculated. Tested compounds were pre-incubated for 5 min. The reaction was started by immediate addition of 20 μL of the substrate. […] Each concentration was assayed in triplicate. Software GraphPad Prism 5 (San Diego, CA, USA) was used for the statistical data evaluation.
Background: Ellman's reagent forms a yellow product with free thiols.
For `C#CCN(C)c1nc(NCC)c2cc(OC)ccc2n1` [III-6c, N4-ethyl-6-methoxy-N2-methyl-N2-(prop-2-yn-1-yl)quinazoline-2,4-diamine], the inhibition at 1 µM is 7%.

As to `C#CCN(C)c1nc(NC2CC2)c2cc(OC)ccc2n1` [III-6g, N4-cyclopropyl-6-methoxy-N2-methyl-N2-(prop-2-yn-1-yl)quinazoline-2,4-diamine], the inhibition at 1 µM was determined as 5%.

Consider `C#CCN(C)c1nc(NC)c2ccccc2n1` [I-6b, N2,N4-dimethyl-N2-(prop-2-yn-1-yl)quinazoline-2,4-diamine], for which the inhibition at 1 µM is 5%. The same measure, in the same setting: under `C#CCN(C)c1nc(NCCOC)c2ccc(Cl)cc2n1` [II-6f, 7-chloro-N4-(2-methoxyethyl)-N2-methyl-N2-(prop-2-yn-1-yl)quinazoline-2,4-diamine] stands 9%; under `C#CCN(C)c1nc(NC2CC2)c2ccccc2n1` [I-6g, N4-cyclopropyl-N2-methyl-N2-(prop-2-yn-1-yl)quinazoline-2,4-diamine], 4%. On the same count and under the same terms, to `C#CCN(C)c1nc(NCC)c2ccc(Cl)cc2n1` [II-6c, 7-chloro-N4-ethyl-N2-methyl-N2-(prop-2-yn-1-yl)quinazoline-2,4-diamine] belongs 4%; to `C#CCN(C)c1nc(NC(C)C)c2ccc(Cl)cc2n1` [II-6d, 7-chloro-N2-methyl-N2-(prop-2-yn-1-yl)-N4-(propan-2-yl)quinazoline-2,4-diamine], 1%; to `C#CCN(C)c1nc(NCCCC)c2cc(OC)ccc2n1` [III-6e, N4-butyl-6-methoxy-N2-methyl-N2-(prop-2-yn-1-yl)quinazoline-2,4-diamine], 8%. On the same count and under the same terms, to `C#CCN(C)c1nc(N)c2ccccc2n1` [I-6a, N2-methyl-N2-(prop-2-yn-1-yl)quinazoline-2,4-diamine] belongs 5%; to `C#CCN(C)c1nc(NCCOC)c2ccccc2n1` [I-6f, N4-(2-methoxyethyl)-N2-methyl-N2-(prop-2-yn-1-yl)quinazoline-2,4-diamine], 5%. Regarding `C#CCN(C)c1nc(NC)c2ccc(Cl)cc2n1` [II-6b, 7-chloro-N2,N4-dimethyl-N2-(prop-2-yn-1-yl)quinazoline-2,4-diamine], the inhibition at 1 µM is 15%. On to `C#CCN(C)c1nc(NC2CC2)c2ccc(Cl)cc2n1` [II-6g, 7-chloro-N4-cyclopropyl-N2-methyl-N2-(prop-2-yn-1-yl)quinazoline-2,4-diamine], for which the inhibition at 1 µM was determined as 4%. Turning to `C#CCN(C)c1nc(NC(C)C)c2cc(OC)ccc2n1` [III-6d, 6-methoxy-N2-methyl-N2-(prop-2-yn-1-yl)-N4-(propan-2-yl)quinazoline-2,4-diamine], the inhibition at 1 µM is 2%. For the molecule `C#CCN(C)c1nc(NC(C)C)c2ccccc2n1` [I-6d, N2-methyl-N2-(prop-2-yn-1-yl)-N4-(propan-2-yl)quinazoline-2,4-diamine], the inhibition at 1 µM is 4%. For `C#CCN(C)c1nc(N)c2ccc(Cl)cc2n1` [II-6a, 7-chloro-N2-methyl-N2-(prop-2-yn-1-yl)quinazoline-2,4-diamine], the inhibition at 1 µM worked out at 7%. For the molecule `C#CCN(C)c1nc(NC)c2cc(OC)ccc2n1` [III-6b, 6-methoxy-N2,N4-dimethyl-N2-(prop-2-yn-1-yl)quinazoline-2,4-diamine], the inhibition at 1 µM came to 4%. Still for that read-out and setting: under `C#CCN(C)c1nc(NCC)c2ccccc2n1` [I-6c, N4-ethyl-N2-methyl-N2-(prop-2-yn-1-yl)quinazoline-2,4-diamine] stands 4%; under `C#CCN(C)c1nc(NC2CCCCC2)c2cc(OC)ccc2n1` [III-6h, N4-cyclohexyl-6-methoxy-N2-methyl-N2-(prop-2-yn-1-yl)quinazoline-2,4-diamine], 3%; under `C#CCN(C)c1nc(NCCOC)c2cc(OC)ccc2n1` [III-6f, 6-methoxy-N4-(2-methoxyethyl)-N2-methyl-N2-(prop-2-yn-1-yl)quinazoline-2,4-diamine], 6%.

A further series addresses T2, human BChE (hBChE) (Homo sapiens, UniProt P06276).
T2 construct: made in house
Briefly: hBChE inhibition, modified Ellman's method. It counts as biochemical. To be noted: 10^-6 M. Here is the method: as §1, §2
`C#CCN(C)c1nc(NCC)c2cc(OC)ccc2n1` [III-6c, N4-ethyl-6-methoxy-N2-methyl-N2-(prop-2-yn-1-yl)quinazoline-2,4-diamine] yielded an inhibition at 1 µM of 2%. For the molecule `C#CCN(C)c1nc(NC2CC2)c2cc(OC)ccc2n1` [III-6g, N4-cyclopropyl-6-methoxy-N2-methyl-N2-(prop-2-yn-1-yl)quinazoline-2,4-diamine], the inhibition at 1 µM was 0%.

As to `C#CCN(C)c1nc(NC)c2ccccc2n1` [I-6b, N2,N4-dimethyl-N2-(prop-2-yn-1-yl)quinazoline-2,4-diamine], the inhibition at 1 µM was 3%. Same read-out and setting: under `C#CCN(C)c1nc(NCCOC)c2ccc(Cl)cc2n1` [II-6f, 7-chloro-N4-(2-methoxyethyl)-N2-methyl-N2-(prop-2-yn-1-yl)quinazoline-2,4-diamine] stands 2%; under `C#CCN(C)c1nc(NC2CC2)c2ccccc2n1` [I-6g, N4-cyclopropyl-N2-methyl-N2-(prop-2-yn-1-yl)quinazoline-2,4-diamine], 2%; under `C#CCN(C)c1nc(NCC)c2ccc(Cl)cc2n1` [II-6c, 7-chloro-N4-ethyl-N2-methyl-N2-(prop-2-yn-1-yl)quinazoline-2,4-diamine], 0%. For the molecule `C#CCN(C)c1nc(NC(C)C)c2ccc(Cl)cc2n1` [II-6d, 7-chloro-N2-methyl-N2-(prop-2-yn-1-yl)-N4-(propan-2-yl)quinazoline-2,4-diamine], the inhibition at 1 µM stood at 3%. In turn, `C#CCN(C)c1nc(NCCCC)c2cc(OC)ccc2n1` [III-6e, N4-butyl-6-methoxy-N2-methyl-N2-(prop-2-yn-1-yl)quinazoline-2,4-diamine] registered an inhibition at 1 µM of 1%. Molecule `C#CCN(C)c1nc(N)c2ccccc2n1` [I-6a, N2-methyl-N2-(prop-2-yn-1-yl)quinazoline-2,4-diamine] registered an inhibition at 1 µM of 0%. The same measure, in the same setting: to `COc1ccc2nc3c(c(N)c2c1)CCCC3` [7-MEOTA, reference compound] belongs 18%; to `C#CCN(C)c1nc(NCCOC)c2ccccc2n1` [I-6f, N4-(2-methoxyethyl)-N2-methyl-N2-(prop-2-yn-1-yl)quinazoline-2,4-diamine], 1%.

With `C#CCN(C)c1nc(NC)c2ccc(Cl)cc2n1` [II-6b, 7-chloro-N2,N4-dimethyl-N2-(prop-2-yn-1-yl)quinazoline-2,4-diamine], the inhibition at 1 µM was determined as 2%. The same measure, in the same setting: to `C#CCN(C)c1nc(NC2CC2)c2ccc(Cl)cc2n1` [II-6g, 7-chloro-N4-cyclopropyl-N2-methyl-N2-(prop-2-yn-1-yl)quinazoline-2,4-diamine] belongs 0%. On the same count and under the same terms, under `C#CCN(C)c1nc(NC(C)C)c2cc(OC)ccc2n1` [III-6d, 6-methoxy-N2-methyl-N2-(prop-2-yn-1-yl)-N4-(propan-2-yl)quinazoline-2,4-diamine] stands 2%.

The molecule `C#CCN(C)c1nc(NC(C)C)c2ccccc2n1` [I-6d, N2-methyl-N2-(prop-2-yn-1-yl)-N4-(propan-2-yl)quinazoline-2,4-diamine] returned an inhibition at 1 µM of 1%. Same read-out and setting: under `C#CCN(C)c1nc(N)c2ccc(Cl)cc2n1` [II-6a, 7-chloro-N2-methyl-N2-(prop-2-yn-1-yl)quinazoline-2,4-diamine] stands 2%; under `C#CCN(C)c1nc(NC)c2cc(OC)ccc2n1` [III-6b, 6-methoxy-N2,N4-dimethyl-N2-(prop-2-yn-1-yl)quinazoline-2,4-diamine], 1%; under `C#CCN(C)c1nc(NCC)c2ccccc2n1` [I-6c, N4-ethyl-N2-methyl-N2-(prop-2-yn-1-yl)quinazoline-2,4-diamine], 0%. `C#CCN(C)c1nc(NC2CCCCC2)c2cc(OC)ccc2n1` [III-6h, N4-cyclohexyl-6-methoxy-N2-methyl-N2-(prop-2-yn-1-yl)quinazoline-2,4-diamine] registered an inhibition at 1 µM of 2%.

As to `C#CCN(C)c1nc(NCCOC)c2cc(OC)ccc2n1` [III-6f, 6-methoxy-N4-(2-methoxyethyl)-N2-methyl-N2-(prop-2-yn-1-yl)quinazoline-2,4-diamine], the inhibition at 1 µM was found to be 1%.

Another series concerns the target T3, GluN1/GluN2B receptor (Homo sapiens, UniProt Q05586+Q13224).
T3 construct: expressed in transfected cells; host or cells: HEK293
Nature of the series: whole-cell patch-clamp on HEK293 cells expressing GluN1/GluN2B NMDAR. It counts as cell-based. To be noted: HEK293, 10 µM, −60 mV, ± SEM (n = 5–6), 100% = full inhibition; read-out: Relative inhibition (RI) of GluN1/GluN2B NMDAR. Here is the method:
We tested the derivatives by the whole-cell patch-clamp method at a concentration of 10 μM under steady-state conditions in the presence of the saturating concentrations of NMDAR (co-)agonists (L-glutamate and glycine). […] Whole-cell patch-clamp recordings were performed using an Axopatch 200B amplifier (Molecular Devices, LLC., San Jose, CA, USA) at a holding membrane potential of −60 mV. HEK293 cells were co-transfected with DNA vectors encoding human versions of the GluN1-4a (GluN1) and GluN2B subunits and green fluorescent protein (GFP) in a 1:1:1 ratio using 0.9 μL PolyMag reagent (OZ Biosciences SAS, Marseille, France) in 50 μL Opti-MEM I [56, 57]. After 15 min on a magnetic plate, HEK293 cells were trypsinized and resuspended in Opti-MEM I medium containing 1% FBS, 2 mM MgCl2 and 3 mM kynurenic acid (to reduce cell death caused by activation of NMDARs). Electrophysiological measurements were performed 24–48 h after completion of transfection at room temperature. The extracellular recording solution (ECS) contained (in mM): 160 NaCl, 2.5 KCl, 10 HEPES, 10 D-glucose, 0.2 EDTA, and 0.7 CaCl2 (pH 7.3 with NaOH). […] A microprocessor-controlled rapid perfusion system with a time constant for solution exchange around the recorded cell of ~20 ms was used. Currents were low-pass filtered at 2 kHz using an eight-pole Bessel filter, digitized at 5 kHz, and recorded using the pCLAMP 10 program (Molecular Devices, LLC., San Jose, CA, USA). The co-agonist glycine (100 µM) was applied throughout the recording, and the agonist L-glutamate (1 mM) was used to elicit responses of GluN1/GluN2B receptors.
For orientation: The patch-clamp technique gives a direct electrical read-out from membranes.
Regarding `COc1ccc2nc3c(c(N)c2c1)CCCC3` [7-MEOTA, reference compound], the inhibition at 10 µM was ~60%.

Test system in another series: not listed separately
Nature of the series: in vitro. Particulars: human.
As for `Nc1c2c(nc3ccccc13)CCCC2` [THA, tacrine, reference compound], it took 122.11 ± 0.02 µM to reach half-maximal inhibition (IC50 at 24 h).

Source of the values: paper PMC10252614 (International Journal of Molecular Sciences, 2023).
